Laboratory results published in patent US12263248B2, “Compounds and compositions for intracellular delivery of therapeutic agents” (ModernaTX, Inc., priority 2018, dated 2025).

What was measured:
[1] = Particle size and polydispersity index of nanoparticle compositions (Zetasizer Nano ZS); format: physicochemical
How it was run: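 Nanoparticle compositions are diluted in 1×PBS, then size and polydispersity index are read on a Zetasizer Nano ZS instrument.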

[2] = Encapsulation efficiency of RNA (QUANT-IT RIBOGREEN RNA assay); format: physicochemical; conditions: for EE (%): Table 1A
How it was run: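 RiboGreen fluorescence (ex ~480, em ~520 nm) compared between intact samples and Triton X-100-lysed samples after 15 min at 37 °C in TE buffer, pH 7.5. Percent free RNA is the blank-corrected intact/disrupted ratio.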

[3] = Apparent (surface) pKa of the LNP formulation (TNS assay); format: physicochemical; conditions: for pKa: Table 1A
How it was run: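 LNP (0.04 mg/mL mRNA) mixed with TNS reagent in 21 buffers spanning about pH 3-12, in triplicate; fluorescence plotted against pH as sigmoidal curve. Apparent pKa taken as […] curve inflection point; validated in 1× PBS and 20 mM Tris w/8% sucrose.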

[4] = test system: luciferase (Luc) mRNA; experiment: Luc expression, whole body bioluminescence after intravenous administration to mice; format: in vivo; conditions: for 6 h BLI Lipid/MC3: Table 3E, intravenous; for Fold increase in total body Luc Flux relative to MC3 at 6 h: Table 3A, i.v. administration; for Total Flux 3 hours / Total Flux 6 hours / Total Flux 24 hours: Luc mRNA
How it was run: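 Luc mRNA nanoparticle formulations given intravenously to mice (n=6) at 0.5 mg/kg; whole-body bioluminescence imaged at 3, 6 and 24 h. CD-1 mice received IP D-luciferin (200 μL of 15 mg/mL) 15 min before imaging; total flux quantified by region of interest.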

[5] = Lipid clearance: lipid level in mouse liver tissue (LC-MS/MS); format: in vivo; conditions: Table 3E, mouse liver
[6] = test system: luciferase (Luc) mRNA; experiment: Luc expression in liver, lung, spleen and femur 6 hours after intravenous administration; format: in vivo; conditions: mice, 0.5 mpk; for Total Flux Liver / Total Flux Lung / Total Flux Spleen / Total Flux Femur: intravenous
How it was run: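 LNP-formulated mRNA given IV to mice (n=3) at 0.5 mpk; at 6 h, bioluminescence imaged ex vivo 15 min after IP D-luciferin (15 mg/mL, 200 μL), organs imaged within 25 min. Values are total flux by region of interest.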

[7] = test system: IL-6, IP-10; experiment: Cytokine induction in mice upon intravenous administration; format: in vivo; parameters: Cytokine induction IL-6 / Cytokine induction IP-10: unit not given here; conditions: 0.5 mpk, 6 hours; for IL-6 induction / IP-10 induction: i.v., in words; for Cytokine induction IL-6 / Cytokine induction IP-10: intravenous
From the text: The introduction of foreign material into a mammalian body induces an innate immune response that promotes cytokine production. Such immune responses to, for example, nanoparticle compositions including therapeutic and/or prophylactics, are undesirable. The induction of certain cytokines is thus measured to evaluate the […] of nanoparticle compositions. The concentrations of various cytokines in mice upon intravenous administration of nanoparticle compositions presented in Table 1A at a dosage of 0.5 mpk was measured at 6 hours. The standard MC3 formulation and a PBS control were also tested. As is evident in Table 7, IL-6 induction was highest for compositions including Compounds 1, 3, 9, 19, and 26, while IP-10 induction was highest for compositions including Compounds 3, 4, 7, 20, and 26. IL-6 induction was lowest for compositions including Compounds 4, 11, 12, and 28. IP-10 induction was lowest for compositions including Compounds 10, 11, 12, 13, 15, 17, and 18.

[8] = test system: luciferase (Luc) mRNA; experiment: Luc expression (total flux) after intramuscular administration; format: in vivo, mice; conditions: 6 hours after intramuscular administration
How it was run: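 Mice given a single intramuscular dose of lipid nanoparticle formulations carrying modified Luc mRNA, alone or with H10 mRNA, at 0.001 or 0.01 mpk total. Luciferase expression recorded as total flux.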

[9] = test system: luciferase mRNA; experiment: Luciferase expression after subcutaneous administration to mice; format: in vivo, female CD-1 mice; conditions: 0.5 mpk, relative to MC3
Description: The effect of the lipids of the disclosure on protein expression upon subcutaneous administration was studied. Formulations containing lipids of the disclosure and an mRNA expressing luciferase or hEPO were administered subcutaneously to female CD-1 mice at 0.5 mpk. Expression levels were obtained via whole body luminescent imaging (BLI) at 3, 6 and 24 hours after injection and expression levels in liver, spleen and at the injection site were evaluated ex vivo after 24 hours. […] See also Tables 35 and 36, and FIGS. 19 and 27.
Table 35 summarizes the luciferase expression levels using various nanoparticle compositions of the disclosure, and the luciferase expression levels using various nanoparticle compositions of the disclosure as compared to the luciferase expression level using an MC3 formulation after subcutaneous administration, as described above.

[10] = Table 1A, lipid:DSPC:cholesterol:PEG-DMG 50:10:38.5:1.5 mol %
[11] = Table 1E, compositions for subcutaneous administration

Row | Structure (SMILES) | PDI ([1]; Table 1A) | Size (nm) [1, 10] [nm] | EE (%) [2] [%] | pKa [3] | % Remaining dose at 6 h [5] [%] | % Remaining dose at 24 h [5] [%] | Cytokine induction IL-6 [7] | Cytokine induction IP-10 [7] | 6 h BLI Lipid/MC3 [4] | Total Flux 3 hours ([4]; mice, i.v., 0.5 mg/kg) | Total Flux 6 hours ([4]; mice, i.v., 0.5 mg/kg) | Total Flux 24 hours ([4]; mice, i.v., 0.5 mg/kg) | Total Flux Liver [6] | Total Flux Lung [6] | Total Flux Spleen [6] | further results
1 | CCCCCCCCCC(C)(O)CCCCCCCCN(CCO)CCCCCCCC(=O)OC(CCCCCCCC)CCCCCCCC (centres unmarked) [Compound 171, Heptadecan-9-yl 8-((9-hydroxy-9-methyloctadecyl)(2-hydroxyethyl)amino)octanoate] | 0.14 | 100.5 | 85.0 | 6.48 | 51.0 | 35.5 | – | – | 2.26 | – | – | – | – | – | – | –
2 | CCCCCCCCC(CCCCCCCC)C(=O)OCCCCCCCN(CCO)C(C)CCCCCCCCOC(=O)CCCCCCC (centres unmarked) [Compound 162, 7-((2-Hydroxyethyl)(10-(octanoyloxy)decan-2-yl)amino)heptyl 2-octyldecanoate] | 0.14 | 72.7 | 94.1 | 6.08 | 0.283 | 0 | – | – | 0.28 | – | – | – | – | – | – | –
3 | CCCCCCCCCOC(=O)CCCCCCCN(CCCCCCCC(=O)OC(CCCCCCCC)CCCCCCCC)CC(O)CO (centres unmarked) [Compound 69, Heptadecan-9-yl 8-((2,3-dihydroxypropyl)(8-(nonyloxy)-8-oxooctyl)amino)octanoate] | 0.13 | 77.2 | 98.4 | 6.92 | – | – | – | – | – | 3.38E+09 | 7.95E+09 | 1.15E+08 | 2.24E+08 | 7.34E+05 | 2.54E+06 | PDI [1, 11]: 0.09; Size (nm) [1, 11]: 71.8 nm; % EE [2, 11]: 99%; App. pKa ([3]; Table 3F): 6.95; Total flux (p/s) 0.01 mpk Dose ([8]; Table 5B, 0.01 mpk): 8.83E+06 p/s; Novel lipid/MC3 expression ratio, 6 hr. time point, s.c. Luc 0.5 mpk [9]: 0.14
4 | CCCCCCCCCOC(=O)CCCCCCCN(CCCCCCCC(=O)OC(CCCCCCCC)CCCCCCCC)CCCOC [Compound 16, Heptadecan-9-yl 8-((3-methoxypropyl)(8-(nonyloxy)-8-oxooctyl)amino) octanoate] | 0.16 | 119.0 | 91.32 | 5.52 | – | – | 32.01 | 206.75 | – | 2.58E+08 | 5.45E+08 | 2.37E+07 | 3.17E+07 | 4.18E+05 | 5.43E+06 | Fold increase in total body Luc Flux relative to MC3 at 6 h [4]: 0.02; Total Flux Femur [6]: 2.55E+05
5 | CCCCCCCCCCCCN(CCO)CCCCCCCCCCCC(=O)OC [Compound 137, Methyl 12-(dodecyl(2-hydroxyethyl)amino)dodecanoate] | – | – | – | 7.06 | – | – | 130.82 | 234.35 | – | 3.77E+05 | 5.02E+05 | 4.49E+05 | 6.48E+04 | 1.66E+04 | 1.32E+05 | Total flux, 0.001 mpk Dose ([8]; 0.001 mpk, Luc mRNA and H10 mRNA): 7.57E+04 p/s; Total flux, 0.01 mpk Dose ([8]; 0.01 mpk, Luc mRNA and H10 mRNA): 8.09E+04 p/s; Total Flux Femur [6]: 2.02E+04
6 | CCCCCCCCCOC(=O)CCCCCCCN(CCCCCCCC(=O)OC(CCCCCCCC)CCCCCCCC)C[C@@H](C)O [Compound 11, Heptadecan-9-yl (R)-8-((2-hydroxypropyl)(8-(nonyloxy)-8-oxooctyl)amino)octanoate] | 0.13 | 129.6 | 92.47 | 5.97 | – | – | 0.14 | 44.84 | – | 3.38E+09 | 7.11E+09 | 1.15E+08 | 8.03E+08 | 1.35E+07 | 1.04E+08 | IL-6 induction [7]: lowest; IP-10 induction [7]: lowest

Now from value to molecule, other results behind:

Row | PDI ([1]; Table 1A) | Size (nm) [1, 10] [nm] | EE (%) [2] [%] | pKa [3] | % Remaining dose at 6 h [5] [%] | % Remaining dose at 24 h [5] [%] | Cytokine induction IL-6 [7] | Cytokine induction IP-10 [7] | Structure (SMILES) | 6 h BLI Lipid/MC3 [4] | Total Flux 3 hours ([4]; mice, i.v., 0.5 mg/kg) | Total Flux 6 hours ([4]; mice, i.v., 0.5 mg/kg) | Total Flux 24 hours ([4]; mice, i.v., 0.5 mg/kg) | Total Flux Liver [6] | Total Flux Lung [6] | Total Flux Spleen [6] | further results
7 | 0.24 | 245.3 | 32.3 | 6.54 | 0.076 | 0 | – | – | CCCCCCCCCOC(=O)CCCCCCCN(CCO)CCCCCCCC(=O)OC(COCCCCCC)COCCCCCC [Compound 183, 1,3-Bis(hexyloxy)propan-2-yl 8-((2-hydroxyethyl)(8-(nonyloxy)-8-oxooctyl)amino)octanoate] | 0.031 | – | – | – | – | – | – | –
8 | 0.21 | 120.5 | 95.10 | 6.33 | – | – | 13.1375 | 2253.09 | CCCCCCCCC(CCCCCCCC)OC(=O)CCCCCCCN(CCO)CCCCCCCC [Compound 4, Heptadecan-9-yl 8-((2-hydroxyethyl)(octyl)amino)octanoate] | – | 1.37E+11 | 6.01E+10 | 1.13E+09 | 5.26E+09 | 6.22E+07 | 4.09E+08 | Fold increase in total body Luc Flux relative to MC3 at 6 h [4]: 1.31; total flux at 3 hours ([4]; mice, i.v., 0.5 mg/kg, comparison in words): highest; Flux in the spleen ([6]; i.v., in words): highest; IL-6 induction [7]: lowest; IP-10 induction [7]: highest
9 | 0.18 | 102.9 | 89.60 | 6.09 | – | – | 88.81 | 138.16 | CCCCCCCCCOC(=O)CCCCCCCN(CCCCCCCC(=O)OC(CCCCCCCC)CCCCCCCC)CC(C)O (centres unmarked) [Compound 10, Heptadecan-9-yl 8-((2-hydroxypropyl)(8-(nonyloxy)-8-oxooctyl)amino) octanoate] | – | 6.03E+08 | 2.37E+09 | 4.04E+07 | 3.22E+08 | 8.85E+05 | 8.17E+06 | Total Flux Femur [6]: 5.09E+05; IP-10 induction [7]: lowest
10 | 0.09 | 67.6 | 94.3 | 6.08 | 0.203 | 0 | – | – | CCCCCCCCC(CCCCCCCC)OC(=O)CCCCCCCN(CCO)C(C)CCCCCCCCOC(=O)CCCCCCC (centres unmarked) [Compound 161, Heptadecan-9-yl 8-((2-hydroxyethyl)(10-(octanoyloxy)decan-2-yl)amino)octanoate] | 0.12 | – | – | – | – | – | – | –
11 | 0.17 | 92.2 | 87.2 | 6.33 | 0.051 | 0 | – | – | CCCCCCCOC(=O)CCCCCCCCCN(CCO)CCCCCCCCCC(=O)OC(CCCCCC)CCCCCC [Compound 186, Heptyl 10-((2-hydroxyethyl)(10-oxo-10-(tridecan-7-yloxy)decyl)amino)decanoate] | 1.13 | – | – | – | – | – | – | –
